Measured values published in article PMC9138683, “Decoding the Role of Melatonin Structure on Plasmodium falciparum Human Malaria Parasites Synchronization Using 2-Sulfenylindoles Derivatives” (Biomolecules, 2022).
“Also recorded” adds a separate entry of the source.

Test system: Plasmodium falciparum Dd2 (chloroquine-resistant)
Assay: In vitro drug susceptibility assay, Dd2 strain (flow cytometry, SYBR Green I / MitoTracker Deep Red)
Type: cell-based
Conditions: Plasmodium falciparum, DD2, 72 h, asynchronous parasites, 72 h, 0.1-100 µM; read-out: IC50 ± SD PfDd2
Experimental: (§1) The cultures were maintained under an atmosphere of 5% CO2, 5% O2, and 90% N2. Fresh complete medium was provided daily, and rapid-stained (Panotico) blood smears were examined.
(§2) To evaluate the effects of synthetic compounds on the intraerythrocytic development of P. falciparum, we analyzed parasitemia by flow cytometry with 0.3% initial parasitemia and 1% hematocrit in the assay. Plates were incubated with the compounds at concentrations ranging from 0.10 to 100 µM for 72 h. Dual staining with SYBR Green I (SG-I) (Invitrogen, Waltham, MA, USA) and MitoTracker Deep Red (MT-Red) (Invitrogen) were used to label nucleic acids and mitochondria, respectively. Approximately 10,000 cells were counted by an Accuri C6 (Becton Dickinson, San Jose, CA, USA) and analyzed by FlowJo 5 software. Parasitemia was determined from the analysis of dot plots (side scatter versus fluorescence).
(§3) We determined the susceptibility of P. falciparum to the indole compounds and investigated whether CQR parasites responded differently to the compounds. […] We determined the IC50 values for each compound by analyzing viable and non-viable parasites after compound treatment, represented in dot plots (Figure 1H).

Compound	IC50 [µM]
COC(=O)Cc1c(SCCCCO)[nH]c2ccccc12 [Compound 19]	39.9 ± 1.61
COC(=O)Cc1c(Sc2ccccc2C(=O)O)[nH]c2ccccc12 [Compound 8]	43.3 ± 6.51
COC(=O)Cc1c(SC23CC4CC(CC(C4)C2)C3)[nH]c2ccccc12 [Compound 18]	< 20
CCCCCCCCCCCCSc1[nH]c2cc(Cl)ccc2c1CC(=O)OC [Compound 21]	< 20
COC(=O)Cc1c(Sc2ccccc2)[nH]c2ccc(OC)cc12 [Compound 25]	45.5 ± 4.84
COC(=O)Cc1c(Sc2ccccc2)[nH]c2ccccc12 [Compound 3]	< 20

Same assay, conditions: asynchronous parasites, 72 h, 0.1-100 µM; read-out: IC50 ± SD PfDd2

Compound	IC50 [µM]
COC(=O)Cc1c(SC23CC4CC(CC(C4)C2)C3)[nH]c2ccccc12 [Compound 18]	15.7 ± 4.87
CCCCCCCCCCCCSc1[nH]c2cc(Cl)ccc2c1CC(=O)OC [Compound 21]	16.9 ± 4.66
COC(=O)Cc1c(Sc2ccccc2)[nH]c2ccccc12 [Compound 3]	18 ± 1.72

Test system: not listed separately
Assay: Cytotoxicity assay (MTT)
Type: cell-based, human
Conditions: human, HEK293T (HEK293) cells, 0.10-100 µM, read-out: CC50 ± SD HEK293
Experimental: HEK293T (human embryonic kidney) cells were cultured in 75 cm^2 vented tissue culture flasks (Greiner Bio-One, Frickenhausen, Germany) at 37 °C in a humidified atmosphere containing 5% CO2 in Dulbecco’s modified […] (Gibco) supplemented with 10% (v/v) fetal bovine serum (Gibco), 100 U/mL penicillin, and 100 μg/mL streptomycin (Sigma). Cytotoxicity was evaluated with the 4,5-dimethylthiazol-2-yl-2,5-diphenyltetrazolium bromide (MTT) cell proliferation assay. Briefly, 10^4 cells/well were seeded in flat-bottom 96-well plates in complete DMEM medium for 24 h, followed by incubation with different concentrations of each compound (0.10–100 µM) for 72 h. DMSO (0.13%) and digitonin were used as the negative and positive controls, respectively. The concentrations of DMSO chosen as control were the concentration present in the tested compounds (from 0.0001% to 0.12%, two-fold dilution). After 72 h, cells were then incubated with the MTT reagent for 3 h, and absorbance was measured at 570 nm using a FlexStation® 3 Multi-Mode Microplate Reader (Molecular Devices, Sunnyvale, CA, USA). Moreover, we calculated the selectivity indexes (SI) to understand whether the compounds were more toxic to parasites than cells, or vice versa, according to the ratio of the CC50 value to the IC50 value for each compound.
We further assessed the toxicity of 2-sulfenylindole compounds against HEK293 cells using the MTT assay with different concentrations of the compounds for 72 h. Table 1 presents all the toxicity data and summarizes the IC50 values of the compounds evaluated in this study for Dd2 and 3D7 strains.

Compound	CC50 at 72 h [µM]
COC(=O)Cc1c(SCCCCO)[nH]c2ccccc12 [Compound 19]	28.1 ± 5.46
COC(=O)Cc1c(Sc2ccccc2C(=O)O)[nH]c2ccccc12 [Compound 8]	> 100
COC(=O)Cc1c(SC23CC4CC(CC(C4)C2)C3)[nH]c2ccccc12 [Compound 18]	16.8 ± 2.63
CCCCCCCCCCCCSc1[nH]c2cc(Cl)ccc2c1CC(=O)OC [Compound 21]	> 100
COC(=O)Cc1c(Sc2ccccc2)[nH]c2ccc(OC)cc12 [Compound 25]	13.1 ± 3.74
COC(=O)Cc1c(Sc2ccccc2)[nH]c2ccccc12 [Compound 3]	15.2 ± 1.36

Test system: Plasmodium falciparum 3D7 (chloroquine-sensitive)
Assay: In vitro drug susceptibility assay, 3D7 strain (flow cytometry, SYBR Green I / MitoTracker Deep Red)
Type: cell-based
Conditions: Plasmodium falciparum, 3D7, 72 h, asynchronous parasites, 72 h, 0.1-100 µM; read-out: IC50 ± SD Pf3D7
Experimental: as §1, §2, §3

Compound	IC50 [µM]
COC(=O)Cc1c(SCCCCO)[nH]c2ccccc12 [Compound 19]	27.8 ± 2.03
COC(=O)Cc1c(Sc2ccccc2C(=O)O)[nH]c2ccccc12 [Compound 8]	37.3 ± 3.58
COC(=O)Cc1c(SC23CC4CC(CC(C4)C2)C3)[nH]c2ccccc12 [Compound 18]	< 20
CCCCCCCCCCCCSc1[nH]c2cc(Cl)ccc2c1CC(=O)OC [Compound 21]	< 20
COC(=O)Cc1c(Sc2ccccc2)[nH]c2ccc(OC)cc12 [Compound 25]	26.5 ± 4.87
COC(=O)Cc1c(Sc2ccccc2)[nH]c2ccccc12 [Compound 3]	< 20

Same assay, conditions: asynchronous parasites, 72 h, 0.1-100 µM; read-out: IC50 ± SD Pf3D7

Compound	IC50 [µM]
COC(=O)Cc1c(SC23CC4CC(CC(C4)C2)C3)[nH]c2ccccc12 [Compound 18]	13.5 ± 3.24
CCCCCCCCCCCCSc1[nH]c2cc(Cl)ccc2c1CC(=O)OC [Compound 21]	19.1 ± 1.78
COC(=O)Cc1c(Sc2ccccc2)[nH]c2ccccc12 [Compound 3]	10.6 ± 5.19

Test system: P. falciparum 3D7 parasites
Assay: Effect of 2-sulfenylindoles in combination with 100 nM melatonin on parasitemia
Type: cell-based, Plasmodium falciparum
Conditions: 500 nM compound + 100 nM melatonin, 3D7, 48 h
Experimental: (§4) To evaluate the role of the compounds in parasitemia, 1% 3D7 parasites in 2% hematocrit were incubated for 48 h with 500 nM of the 2-sulfenylindole derivatives. Melatonin (100 nM) was used as a positive control, and DMSO (0.0013% v/v) was used as a negative control. The concentration of DMSO chosen as control was the concentration present in the tested compounds at 500 nM. The activity of the compounds was measured by SG-I and MT-Red staining. The data obtained were normalized to those of the control (DMSO). Additionally, to test the ability of the compounds to affect melatonin activity in parasitemia, 3D7 parasites were incubated with 500 nM indole compounds along with 100 nM melatonin for 48 h.
Following the assumption that compounds resembling melatonin structure might interact through the melatonin signaling pathways, we evaluated the effect of the compounds on melatonin action on parasitemia. Our next step was to study the combination of 2-sulfenylindoles with melatonin in asynchronous 3D7 by incubating parasites simultaneously with 100 nM melatonin and 500 nM of each compound.

Compound	effect on melatonin action on parasitemia (in words)
COC(=O)Cc1c(Sc2ccccc2)[nH]c2ccc(OC)cc12 [Compound 25]	did not potentiate or block the effect of melatonin on parasitemia
COC(=O)Cc1c(Sc2ccccc2)[nH]c2ccccc12 [Compound 3]	slight increase in parasitemia

Same assay, conditions: 3D7, 48 h, normalized to DMSO control

Compound	Parasitemia (%) Treatment with compound (500nM) + Melatonin (100nM) [%]
COC(=O)Cc1c(SCCCCO)[nH]c2ccccc12 [Compound 19]	118.5 ± 2.85
COC(=O)Cc1c(Sc2ccccc2C(=O)O)[nH]c2ccccc12 [Compound 8]	133.5 ± 8.06
COC(=O)Cc1c(SC23CC4CC(CC(C4)C2)C3)[nH]c2ccccc12 [Compound 18]	113.9 ± 2.90
CCCCCCCCCCCCSc1[nH]c2cc(Cl)ccc2c1CC(=O)OC [Compound 21]	111.9 ± 2.78
COC(=O)Cc1c(Sc2ccccc2)[nH]c2ccc(OC)cc12 [Compound 25]	112.8 ± 2.93
COC(=O)Cc1c(Sc2ccccc2)[nH]c2ccccc12 [Compound 3]	129.8 ± 6.78

Test system: P. falciparum 3D7 strain
Assay: Blood-stage development evaluation by microscopy
Type: cell-based, Plasmodium falciparum
Conditions: ring-stage synchronized 3D7, treated at IC50 (30 µM for 20 and 28), monitored every 12 h
Experimental: Ring-stage parasites (10–14 h) at 1% parasitemia in 2% hematocrit were treated with compound 20 and compound 28 at concentrations of 1 and 30 µM in 24-well plates for 48 h. Treatment with chloroquine (20 nM) and DMSO (0.1%) was used as positive and negative controls. Smears were rapid stained (Panotico) every 12 h after treatment (12, 24, 36, 48, and 60 h time points), and we took images of parasites to assess the blood-stage development (Zeiss, Oberkochen, Germany).
During monitoring, parasites continued to develop throughout the cycle in the presence of both compounds. […] To examine its stage specificity, we monitored development every 12 h.
Figure 5 Parasitemia reduction with compound 20 (A) and compound 28 (B) to determine the stage activity. Data are means ± SD. Ring-stage synchronized parasites with sorbitol 5% were treated with chloroquine (20 nM), compound 20 (30 µM), and compound 28 (30 µM). The chosen treatment concentration was the IC50 values obtained for these compounds against the 3D7 parasites. (C) After drug administration, smears of P. falciparum 3D7 strain were taken at 0, 12, 24, 36, 48, and 60 h after drug administration, observing the growth development of treated parasites. * p ≤ 0.05, ** p ≤ 0.01, *** p ≤ 0.001.

Compound	stage-specific effect on blood-stage development
COC(=O)Cc1c(SC23CC4CC(CC(C4)C2)C3)[nH]c2ccccc12 [Compound 18]	reduced the progress from rings to trophozoites; also recorded: affect ring to trophozoite progression
COC(=O)Cc1c(Sc2ccccc2)[nH]c2ccccc12 [Compound 3]	reduced the progress from rings to trophozoites; also recorded: affect ring to trophozoite progression

Test system: P. falciparum 3D7 parasites
Assay: Effects of indole derivatives (500 nM) on parasitemia
Type: cell-based, Plasmodium falciparum
Conditions: 500 nM compound alone, 3D7 asynchronous, 48 h
Experimental: as §4
After incubation, the final parasitemia was determined using flow cytometry.

Compound	effect on parasitemia (in words)
CCCCCCCCCCCCSc1[nH]c2cc(Cl)ccc2c1CC(=O)OC [Compound 21]	led to an increase in parasitemia
COC(=O)Cc1c(Sc2ccccc2)[nH]c2ccc(OC)cc12 [Compound 25]	led to an increase in parasitemia
COC(=O)Cc1c(Sc2ccccc2)[nH]c2ccccc12 [Compound 3]	no increase was observed

Same assay, conditions: 500 nM compound, 3D7, 48 h, compared to DMSO control (100.6%)

Compound	increase in parasitemia [%]
CCCCCCCCCCCCSc1[nH]c2cc(Cl)ccc2c1CC(=O)OC [Compound 21]	3.8
COC(=O)Cc1c(Sc2ccccc2)[nH]c2ccc(OC)cc12 [Compound 25]	6.6

Same assay, conditions: Plasmodium falciparum; 3D7, 48 h, normalized to DMSO control; read-out: Parasitemia (%) Treatment with compound (500nM)

Compound	activity at 0.5 µM [%]
COC(=O)Cc1c(SCCCCO)[nH]c2ccccc12 [Compound 19]	100 ± 1.81
COC(=O)Cc1c(Sc2ccccc2C(=O)O)[nH]c2ccccc12 [Compound 8]	102 ± 1.71
COC(=O)Cc1c(SC23CC4CC(CC(C4)C2)C3)[nH]c2ccccc12 [Compound 18]	98 ± 2.61
CCCCCCCCCCCCSc1[nH]c2cc(Cl)ccc2c1CC(=O)OC [Compound 21]	104.4 ± 1
COC(=O)Cc1c(Sc2ccccc2)[nH]c2ccc(OC)cc12 [Compound 25]	107 ± 2.46
COC(=O)Cc1c(Sc2ccccc2)[nH]c2ccccc12 [Compound 3]	98.2 ± 2.28
